In ChEMBL document CHEMBL5154881, “Discovery of First-in-Class TAK1-MKK3 Protein-Protein Interaction (PPI) Inhibitor (R)-STU104 for the Treatment of Ulcerative Colitis through Modulating TNF-α Production” (J Med Chem, 2022):

Assays:
[1] = test system: Mus musculus; assay: Inhibition of MKK3-p38 MAPK-elF4E signaling pathway in C57BL/6 mouse model of acute ulcerative colitis assessed as decrease in DSS-induced MKK3 phosphorylation in colon tissue administered intragastrically via gavage measured after 7 days by Western blot analysis; conditions: dose 1-50 mg/kg, time 7.0 day, DDE = dose-dependent effect
[2] = test system: Mus musculus; assay: Antiinflammatory activity against IL-10-/- C57BL/6 mouse model of ulcerative colitis assessed as inhibition ratio of TNF-alpha mRNA expression in colon tissue at 3 mg/kg, IG via gavage and measured after 8 weeks by RT-qPCR analysis relative to control; type: functional; parameters: scale not given: the % may be the effect or the level left
[3] = Toxicity in C57 mouse assessed as body weight loss at 50 to 500 mg/kg, po administered daily for 14 days; type: organism-based; conditions: in vivo, 336 h, dose 50-500 mg/kg, time 14 day
[4] = Half life in 12 hr starved C57 mouse at 5 mg/kg, iv measured for 0.083 to 24 hrs post-dose by LC-MS-MS analysis; type: ADME, organism-based; conditions: in vivo, time 0.083-24 hrs
[5] = test system: Mus musculus; assay: Antiinflammatory activity against DSS-induced C57BL/6 mouse model of acute ulcerative colitis assessed as inhibition ratio of IL-6 mRNA expression in colon tissue at 10 mg/kg, IG via gavage measured after 7 days by RT-qPCR analysis relative to control; type: functional; parameters: scale not given: the % may be the effect or the level left; conditions: time 7 day
[6] = test system: Mus musculus; assay: Antiinflammatory activity against DSS-induced C57BL/6 mouse model of acute ulcerative colitis assessed as inhibition ratio of IL-23 mRNA expression in colon tissue at 3 mg/kg, IG via gavage measured after 7 days by RT-qPCR analysis relative to control; type: functional; parameters: scale not given: the % may be the effect or the level left; conditions: time 7 day
[7] = AUC (0 to t) in 12 hr starved C57 mouse at 30 mg/kg, po measured for 0.083 to 24 hrs post-dose by LC-MS-MS analysis; type: ADME, organism-based; parameters: time upper 24 hrs, dose 30 mg/kg, time lower 0.083 hrs, route po; conditions: in vivo
[8] = test system: Mus musculus; assay: Antiinflammatory activity against IL-10-/- C57BL/6 mouse model of ulcerative colitis assessed as inhibition ratio of IL-23 mRNA expression in colon tissue at 3 mg/kg, IG via gavage and measured after 8 weeks by RT-qPCR analysis relative to control; type: functional; parameters: scale not given: the % may be the effect or the level left
[9] = test system: Mus musculus; assay: Antiinflammatory activity against IL-10-/- C57BL/6 mouse model of ulcerative colitis assessed as inhibition ratio of IL-1beta mRNA expression in colon tissue at 10 mg/kg, IG via gavage and measured after 8 weeks by RT-qPCR analysis relative to control; type: functional; parameters: scale not given: the % may be the effect or the level left
[10] = test system: Mus musculus; assay: Antiinflammatory activity against IL-10-/- C57BL/6 mouse model of ulcerative colitis assessed as inhibition ratio of IL-6 mRNA expression in colon tissue at 3 mg/kg, IG via gavage and measured after 8 weeks by RT-qPCR analysis relative to control; type: functional; parameters: scale not given: the % may be the effect or the level left
[11] = target: T1, Dual specificity mitogen-activated protein kinase kinase 3 (Mus musculus) (UniProt O09110); assay: Binding affinity to MKK3 in mouse RAW264.7 cells assessed as increase in thermal stability by measuring change in melting temperature at 6.25 uM incubated for 24 hrs by CETSA; type: cell-based
T1 sequence (whole entry): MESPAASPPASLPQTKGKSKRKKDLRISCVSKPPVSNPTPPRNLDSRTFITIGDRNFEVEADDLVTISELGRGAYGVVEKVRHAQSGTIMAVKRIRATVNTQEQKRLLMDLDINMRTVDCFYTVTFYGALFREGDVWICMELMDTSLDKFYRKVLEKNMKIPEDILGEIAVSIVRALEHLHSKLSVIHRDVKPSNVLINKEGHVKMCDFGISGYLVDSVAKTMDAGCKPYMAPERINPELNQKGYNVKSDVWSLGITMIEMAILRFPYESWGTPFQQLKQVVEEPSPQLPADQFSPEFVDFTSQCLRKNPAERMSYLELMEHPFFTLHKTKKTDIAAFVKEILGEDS

[12] = test system: Mus musculus; assay: Anti-ulcerative colitis activity against DSS-induced ulcerative colitis C57BL/6 mouse model assessed as reduction in DAI score at 10 mg/kg, IG via gavage administered for 7 days and measured everyday (reference value: 4.0); type: functional; conditions: time 7 day
[13] = Metabolic stability in mouse liver microsomes assessed as intrinsic clearance; type: ADME, Microsome
[14] = Toxicity in C57 mouse assessed as maximum tolerated dose administered orally daily for 14 days; conditions: in vivo, route po, time 14 day
[15] = test system: Mus musculus; assay: Anti-ulcerative colitis activity in IL-10-/- C57BL/6 mouse model of ulcerative colitis assessed as histopathological score recovery ratio at 1 mg/kg, IG via gavage for 8 weeks relative to control; type: functional
[16] = test system: Mus musculus; assay: Anti-ulcerative colitis activity in IL-10-/- C57BL/6 mouse model of ulcerative colitis assessed as colon length recovery ratio at 3 mg/kg, IG via gavage for 8 weeks relative to control; type: functional
[17] = test system: RAW264.7; assay: Inhibition of LPS-induced TNFalpha production in mouse RAW264.7 cells at 50 uM preincubated for 2 hrs followed by LPS treatment for 24 hrs by RT-qPCR analysis relative to control; type: functional; conditions: time 26 hrs
[18] = test system: Mus musculus; assay: Anti-ulcerative colitis activity in IL-10-/- C57BL/6 mouse model of ulcerative colitis assessed as body weight recovery ratio at 3 mg/kg, IG via gavage for 8 weeks and measured everyday relative to control; type: functional
[19] = test system: Mus musculus; assay: Antiinflammatory activity against DSS-induced C57BL/6 mouse model of acute ulcerative colitis assessed as inhibition ratio of IL-6 protein expression at 1 mg/kg, IG via gavage measured after 7 days by ELISA relative to control; type: functional; parameters: scale not given: the % may be the effect or the level left; conditions: time 7 day
[20] = test system: Mus musculus; assay: Anti-ulcerative colitis activity against DSS-induced ulcerative colitis C57BL/6 mouse model assessed as reduction in DAI score at 3 mg/kg, IG via gavage administered for 7 days and measured everyday (reference value: 4.0); type: functional; conditions: time 7 day
[21] = test system: Mus musculus; assay: Antiinflammatory activity against IL-10-/- C57BL/6 mouse model of ulcerative colitis assessed as inhibition ratio of IL-1beta protein expression at 3 mg/kg, IG via gavage and measured after 8 weeks by ELISA relative to control; type: functional; parameters: scale not given: the % may be the effect or the level left
[22] = Toxicity in C57 mouse assessed as spleen damage at 50 to 500 mg/kg, po administered daily for 14 days; type: organism-based; conditions: in vivo, 336 h, dose 50-500 mg/kg, time 14 day
[23] = test system: Mus musculus; assay: Antiinflammatory activity against IL-10-/- C57BL/6 mouse model of ulcerative colitis assessed as inhibition ratio of IL-6 mRNA expression in colon tissue at 10 mg/kg, IG via gavage and measured after 8 weeks by RT-qPCR analysis relative to control; type: functional; parameters: scale not given: the % may be the effect or the level left
[24] = test system: Mus musculus; assay: Anti-ulcerative colitis activity against DSS-induced ulcerative colitis C57BL/6 mouse model assessed as reduction in DAI recovery score ratio at 10 mg/kg, IG via gavage administered for 7 days and measured everyday relative to control; type: functional; parameters: scale not given: the % may be the effect or the level left; conditions: time 7 day
[25] = test system: Mus musculus; assay: Antiinflammatory activity against IL-10-/- C57BL/6 mouse model of ulcerative colitis assessed as inhibition ratio of IL-23 protein expression at 1 mg/kg, IG via gavage and measured after 8 weeks by ELISA relative to control; type: functional; parameters: scale not given: the % may be the effect or the level left
[26] = test system: Mus musculus; assay: Antiinflammatory activity against IL-10-/- C57BL/6 mouse model of ulcerative colitis assessed as inhibition ratio of TNF-alpha mRNA expression in colon tissue at 10 mg/kg, IG via gavage and measured after 8 weeks by RT-qPCR analysis relative to control; type: functional; parameters: scale not given: the % may be the effect or the level left
[27] = test system: P-gp (human); assay: Efflux ratio of apparent permeability in dog MDCK-MDR1 cells transfected with human P-gp; type: ADME, cell-based, Canis lupus familiaris

Compound: COc1ccc([C@H]2CC(=O)c3cc(OC)cc(OC)c32)cc1
- inhibition [1]: Dde
- Activity [2]: 69.5%
- Activity [3]: Non-Toxic
- half-life [4]: 9.29 h
- Activity [5]: 76%
- Activity [6]: 89.9%
- AUC(0-t) [7]: 9.89 µg·h/mL
- Activity [8]: 51.7%
- Activity [9]: 43.8%
- Activity [10]: 37.1%
- ΔTm [11]: 2 °C
- Activity [12]: 2.2
- CLH [13]: 1730.2 mL/min/g
- MTD at 336 h [14]: 500 mg/kg
- Activity [15]: 33%
- Activity [16]: 29.4%
- inhibition at 50 µM [17]: 62.3%
- Activity [18]: 14.8%
- Activity [19]: 40.4%
- Activity [20]: 2.4
- Activity [21]: 50%
- Activity [22]: Non-Toxic
- Activity [23]: 48.6%
- Activity [24]: 45%
- Activity [25]: 39.6%
- Activity [26]: 68.5%
- efflux ratio [27]: 0.33
